Experimental data published in patent US9611295B2, “Treatment of IL-17 mediated disease by blocking SEFIR-SEFIR interactions” (THE CLEVELAND CLINIC FOUNDATION, priority 2011, dated 2017).

What was measured:
IL-17RA SEFIR domain = molecular target: T1, IL-17RA SEFIR domain (Homo sapiens, UniProt Q96F46); assay: SPR binding of peptides to immobilized IL-17RA SEFIR domain; conditions: sensor-immobilized IL-17RA SEFIR, Biacore 3000
T1 construct: IL17RA-SEFIR, amino acid residues 351 to 616; 6xHis (N, cleaved yes); TEV recognition site (ENLYFQG) (N, cleaved yes); made in house
T1 sequence (Q96F46 351-616): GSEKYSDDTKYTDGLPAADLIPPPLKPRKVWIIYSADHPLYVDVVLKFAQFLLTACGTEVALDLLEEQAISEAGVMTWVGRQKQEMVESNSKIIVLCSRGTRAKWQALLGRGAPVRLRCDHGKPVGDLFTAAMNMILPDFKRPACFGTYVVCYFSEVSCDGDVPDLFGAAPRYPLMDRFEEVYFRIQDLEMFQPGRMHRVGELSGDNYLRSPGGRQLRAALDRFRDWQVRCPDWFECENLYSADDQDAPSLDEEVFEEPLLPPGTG
Source text: The Cins helix and the CC′ loop are distinct putative surface-exposed sequences in the SEFIR3 segment of Act1. To determine whether the Cins helix and the CC′ loop interacted with IL-17RA, surface plasmon resonance (SPR) was used to test peptides derived from Cins (SPKYKQDVEGAESQ) (SEQ ID NO: 19) and the CC′ loop (LDEDEHGLHTKY) (SEQ ID NO: 5) for their ability to bind to the IL-17RA SEFIR domain. As expected, the recombinant Act1 SEFIR domain bound to the sensor-immobilized SEFIR of IL-17RA.
Expression and purification of IL-17RA and mAct1-SEFIR proteins: The cDNA encoding a SEFIR domain-containing fragment of human IL17RA (IL17RA-SEFIR, amino acid residues 351 to 616) was subcloned into a modified pET-28 vector, with a N-terminal 6×His tag (SEQ ID NO: 18)and a tobacco etch virus protease (TEV) recognition site (ENLYFQG) (SEQ ID NO: 21 )). The IL17RA SEFIR domain was expressed and purified by double-Nickel-Nitrilotriacetic Acid (Ni-NTA) affinity methods as previously described. Deng et al., Acta Crystallogr D Biol Crystallogr 60:203-204 (2004). The His-tag was subsequently removed from the eluted fusion protein by rTEV, and IL17RA-SEFIR was further purified as flow-through material from a second subtracting Ni-NTA column. Size-exclusion chromatography on a superdex s200 HR high resolution column was used as a final step for purification. The cDNA encoding a SEFIR domain containing a fragment of mouse Act1 (mAct1-SEFIR, residues 391 to 537) was subcloned into a modified pET28b vector that expresses maltose-binding protein (MBP) with an N-terminal 6×His tag (SEQ ID NO: 18) and a C-terminal TEV recognition site. Recombinant mAct1-SEFIR was expressed and purified as previously described. Deng et al., Proc Natl Acad Sci USA 105:1499-1504 (2008). The His-tagged MBP moiety was cleaved from the fusion protein by rTEV after the first Ni-NTA column purification. Recombinant mAct1-SEFIR was subsequently collected as flow-through from a second subtracting Ni-NTA column.
SPR analysis: Binding of purified Act1 SEFIR domain or peptides to IL-17RA was conducted on a Biacore 3000. Purified IL-17RA SEFIR domain was immobilized on a CM5 sensor chip in 10 mM acetic acid (pH 4.5). Purified Act1 SEFIR domain or peptides were allowed to flow over the chip in a buffer of 10 mM Hepes (pH 7.4), 150 mM NaCl, and 0.005% surfactant P20. The chip was regenerated with 1 M NaCl. Binding KD values were determined by Biaevaluation software.

[1] = tested on: IL-17-induced inflammation in mouse ear skin; assay: IL-17-induced inflammation in mouse ear skin; assay type: in vivo; conditions: C57B1/6 mice, daily injection
Procedure: Ears from C57B1/6 mice (n=3 for each group) were injected daily with PBS, IL-17 with or without ASI. On day 7, ears were collected for staining with H&E and real-time analysis of gene expression.

[2] = tested on: House Dust Mite (HDM)-induced Asthma; assay: Murine model of House Dust Mite (HDM)-induced asthma; assay type: in vivo, mouse; conditions: day 6; about 100,000 cells/ml without peptide
Procedure: FIG. 11 provides a graph showing that the ASI peptide inhibits inflammation in a murine model of experimental House Dust Mite (HDM)-induced Asthma. The white blood cell count was about 100,000 cells/ml when IL-17 was used alone, but dropped to about 10,000 cells/ml when ASI peptide was used together with IL-17. […] Ears from C57B1/6 mice (n=3 for each group) were injected daily with PBS, IL-17 with or without ASI. On day 7, ears were collected for staining with H&E and real-time analysis of gene expression.

[3] = tested on: IL-25-dependent signaling; assay: IL-25-dependent signaling in MEFs by Western blotting (pIκB, pJNK, pERK, pp38 MAPK); assay type: cell-based, mouse; conditions: MEFs expressing IL-17RB, peptides 200 μM, 24 hours
Procedure: FIG. 4 provides data showing that a cell-permeable CC′ loop decoy peptide disrupts the interaction between Act1 and IL-17RA and inhibits IL-17R and IL-25R signaling. FIG. 4A provides sequences of Antennapedia homeodomain (Antp) (SEQ ID NO: 11)and decoy peptides (SEQ ID NOS 23-25 and 17, respectively, in order of appearance) with the Antp sequence underlined. FIG. 4B provides flow cytometry results based on experiments in which MEFs expressing IL-17RB were incubated for 2 or 24 hours with the indicated FITC-tagged peptides (200 μM) and were then analyzed by flow cytometry. […] The percentages of FITC-positive cells in the treated samples are shown. FIG. 4C provides Western blot results of experiments in which HeLa cells were cotransfected with plasmids encoding FLAG-tagged mAct1 and V5-tagged IL-17RA and were cultured for 24 hours, after which they were incubated for 24 hours with the indicated peptides (200 μM). IL-17RA was immunoprecipitated from the samples with antibody against the V5 tag, and samples were then subjected to Western blotting analysis with the indicated antibodies. FIG. 4D provides Western blot results of experiments in which MEFs expressing IL-17RB were incubated with the indicated peptides (200 μM) for 24 hours after which they were treated with IL-17 or IL-25 and then analyzed by Western blotting with the indicated antibodies. FIG. 4E provides bar graphs showing the results of experiments in which MEFs expressing IL-17RB were incubated with the indicated peptides (200 μM) for 24 hours, after which they were treated with IL-17 or IL-25 for 3 hours. The abundances of Cxcl1 and Il13 mRNAs were then measured by real-time RT-PCR. […]
(§1) Decoy peptides are based on surface-exposed regions of the primary sequence of a protein to mimic a putative interaction interface. […] These decoy peptides were also tagged at their C-termini with fluorescein isothiocyanate (FITC) to enable their cell-penetrating efficiency to be evaluated by flow cytometric sanalysis. […]

[4] = tested on: IL-17-mediated expression of Cxcl1; assay: IL-17-mediated Cxcl1 mRNA expression in MEFs, real-time RT-PCR; assay type: cell-based, mouse; conditions: peptides 200 μM for 24 hours, then IL-17 for 3 hours
Procedure: (§2) FIG. 4 provides data showing that a cell-permeable CC′ loop decoy peptide disrupts the interaction between Act1 and IL-17RA and inhibits IL-17R and IL-25R signaling. FIG. 4A provides sequences of Antennapedia homeodomain (Antp) (SEQ ID NO: 11)and decoy peptides (SEQ ID NOS 23-25 and 17, respectively, in order of appearance) with the Antp sequence underlined. FIG. 4B provides flow cytometry results based on experiments in which MEFs expressing IL-17RB were incubated for 2 or 24 hours with the indicated FITC-tagged peptides (200 μM) and were then analyzed by flow cytometry. […] The percentages of FITC-positive cells in the treated samples are shown. […] FIG. 4D provides Western blot results of experiments in which MEFs expressing IL-17RB were incubated with the indicated peptides (200 μM) for 24 hours after which they were treated with IL-17 or IL-25 and then analyzed by Western blotting with the indicated antibodies. […] The abundances of Cxcl1 and Il13 mRNAs were then measured by real-time RT-PCR. […]
as §1

[5] = tested on: IL-25-mediated expression of Il13; assay: IL-25-mediated Il13 mRNA expression in MEFs, real-time RT-PCR; assay type: cell-based, mouse; conditions: peptides 200 μM for 24 hours, then IL-25 for 3 hours
Procedure: as §2, §1

Q: How did the “binding to the IL-17RA SEFIR domain (SPR)” value (“binding” for short) (IL-17RA SEFIR domain) turn out when LDEDEHGLHTKY [CC′ loop peptide] was run?
A: The value was “bound to the IL-17RA SEFIR”.

Q: Which results are given for “ASI peptide: the CC′ loop decoy peptide (SEQ ID NO: 5) (LDEDEHGLHTKY)”?
A: epidermal thickness and inflammation of ear skin (H&E) ([1]; day 7): inhibits IL-17-induced inflammation; inflammatory gene expression in ear skin (bar graphs) ([1]; day 7, real-time analysis): counteracted the inflammatory results of IL-17; white blood cell count in BAL [2]: about 10,000 cells/ml

Q: For “SPKYKQDVEGAESQ [Cins peptide, reference compound]”, which “binding” value (IL-17RA SEFIR domain) is on record?
A: The value was “but not the Cins peptide, bound to the IL-17RA SEFIR”.

Q: What does the source list for “Act1 SEFIR domain BB′ loop peptide: cell-permeable decoy peptide: BB′ loop sequence of Act1 SEFIR domain fused to C-terminus of Antp (DRQIKIWFQNRRMKWKKEDRIRGID) [reference compound]”?
A: IL-25-dependent signaling (pIκB, pJNK, pERK, pp38 MAPK) [3]: but not the Act1 SEFIR domain BB′ loop peptide, partly attenuated; inhibition of IL-17-mediated expression of Cxcl1 [4]: no effect; inhibition of IL-25-mediated expression of Il13 [5]: no effect

Q: Which “binding” value (IL-17RA SEFIR domain) does the source give for “EDRIRGID (listed as Mus sp.) [peptide derived from the BB′ loop, reference compound]” here?
A: Its value is “did not bind”.

B1: recombinant Act1 SEFIR domain: SEFIR domain containing fragment of mouse Act1, residues 391 to 537 (protein)
chain: RKVFITYSMDTAMEVVKFVNFLLVNGFQTAIDIFEDRIRGIDIIKWMERYLRDKTVMIIVAISPKYKQDVEGAESQLDEDEHGLHTKYIHRMMQIEFISQGSMNFRFIPVLFPNAKKEHVPTWLQNTHVYSWPKNKKNILLRLLREE
Q: B1 was tested. Which “binding” value (IL-17RA SEFIR domain) did it give?
A: Its value is “bound”.
